Test results as given in publication PMC10002963, “[4+2]-Cycloaddition to 5-Methylidene-Hydantoins and 5-Methylidene-2-Thiohydantoins in the Synthesis of Spiro-2-Chalcogenimidazolones” (International Journal of Molecular Sciences, 2023).
In brackets after ≈: the same amount, converted by molar mass. Like-named read-outs stand apart in the source and are kept apart here.

Legend:
VA13 cell line = test: MTT cytotoxicity assay, VA13; format: cell-based, human
Description: (§1) Some of the obtained spiro-derivatives were tested for cytotoxicity using the standard MTT assay. Cytotoxicity was evaluated using the cell lines of various etiologies: breast cancer MCF7, human lung carcinoma A549, non-cancer human embryonic kidney cell line HEK293T, and non-cancer lung fibroblast VA13 cell line. Lung cancers and breast cancers are among the most common causes of tumor lesions and related death in the world, and non-cancerous cells were applied for the specificity of action evaluation. The results are shown in Table 5; the dose-response dependency graphs are available in Supplementary Information.
(§2) Cell cultures. Human embryonic kidney HEK293T cell line was kindly provided by Dr. E. Knyazhanskaya; immortalized human fibroblasts cell line VA13 was kindly provided by Dr. M. Rubtsova; human breast cancer cell line MCF7 and human lung adenocarcinoma cell line A549 were kindly provided by Dr. S. Dmitriev. MCF7, VA13, A549, and HEK293T cell lines were maintained in DMEM/F-12 (Thermo Fisher Scientific, Waltham, Massachusetts, USA) culture medium containing 10% fetal bovine serum (Thermo Fisher Scientific, Waltham, Massachusetts, USA) and 50 µg/mL penicillin and 0.05 mg/mL streptomycin at 37°C (Thermo Fisher Scientific, Waltham, Massachusetts, USA) in 5% CO2. Cells were maintained at 37°C in a humidified incubator MCO-18AC (Sanyo, Japan) supplied with 5% CO2. Cell cultures were tested for the absence of mycoplasma.
(§3) In Vitro Survival Assay (MTT Assay). The cytotoxicity was tested using the MTT (3-(4,5-dimethylthiazol-2-yl)2,5-diphenyl tetrazolium bromide) assay with some modifications. A total of 2500 cells per well for the MCF7, HEK293T cell lines, 3000 cells for the A549 cell line, or 4000 cells per well for the VA-13 cell line were plated out in 135 µL of DMEM-F12 media (Gibco, USA) in a 96-well plate and then incubated in the 5% CO2 incubator for first 20 h without treating. After this, 15 µL of media-DMSO solutions of tested substances were added to the cells (final DMSO concentrations in the media were 0,5% or less) and treated for65 h with 45 nM–100 µM (eight dilutions) of our substances (triplicate each) and doxorubicin as a control substance. Then the MTT reagent (Paneco LLC, Moscow, Russia) was added to cells up to the final concentration of 0.5 g/L (10 × stock solution in PBS was used), and cells were incubated for 2 h at 37 °C under an atmosphere of 5% CO2. Then the MTT solution was discarded, and 140 µL of DMSO (PharmaMed LLC, Russia) was added. The plates were swayed on a shaker (200 rpm) to dissolve the formazan. The absorbance was measured using a microplate reader (VICTOR ×5 Light Plate Reader, PerkinElmer, USA) at a wavelength of 555 nm (in order to measure formazan concentration). The results were used to construct dose-response graphs and to estimate IC50absvalues (IC50abs is the concentration resulting in a two-fold decrease in the number of cells in comparison with the untreated cells) and, in some cases, IC50 values (IC50 is the concentration resulting in half of the maximal cytotoxic effect) with GraphPadSoftware, Inc., San Diego, CA, USA.

E. coli BW25113 DTC = test: Minimal inhibitory concentration, E. coli BW25113 DTC; format: cell-based, Escherichia coli
Description: (§4) Then the minimal inhibitory concentration (MIC) was measured for E. coli BW25113 DTC and E. coli K-12 (WT) for the 12 most bacteriotoxic compounds from the plate test.
(§5) Determination of Minimal Inhibitory Concentration (MIC). MIC values were determined by monitoring growth in 96-well plates of E. coli cultures exposed to serial dilutions of compounds. Specifically, overnight E. coli BW25113 DTC and K12 cultures were diluted in 96-well plates to an OD590 of 0.01 in LB medium. The wells were then supplemented with the solution of each tested compound at concentrations of 1 mM, 500 µM, 250 µM, 125 µM, 62.5 µM, 31.25 µM, 15.63 µM, 7.81 µM, 3.91 µM, and 1.95 µM. Then the plates were incubated with shaking (200 r.p.m.) overnight at 37°C, and cell growth was assessed by scanning OD590 each well with a VictorX5 reader.

HEK293T cell line = test: MTT cytotoxicity assay, HEK293T; format: cell-based, human
Description: as §1, §2, §3

A549 cell line = test: MTT cytotoxicity assay, A549; format: cell-based, human
Description: as §1, §2, §3

E. coli K-12 (WT) = test: Minimal inhibitory concentration, E. coli K-12; format: cell-based, Escherichia coli; settings: LB medium, overnight 37°C, >1000 = inactive in this test
Description: as §4, §5

MCF7 cell line = test: MTT cytotoxicity assay, MCF7; format: cell-based, human
Description: as §1, §2, §3

[1] = VA13, 65-h treatment, MTT, Cmax 100 µM, read-out: IC50abs
[2] = E. coli BW25113 DTC, LB medium, overnight 37°C, >1000 = inactive in this test
[3] = 65-h treatment, Cmax 100 µM, read-out: IC50abs
[4] = A549, 65-h treatment, MTT, Cmax 100 µM, read-out: IC50abs
[5] = MCF7, 65-h treatment, MTT, Cmax 100 µM, read-out: IC50abs
[6] = VA13, MTT, Table S1, read-out: IC50 (concentration resulting in half of the maximal cytotoxic effect)
[7] = Table S1, read-out: IC50 (concentration resulting in half of the maximal cytotoxic effect)
[8] = A549, MTT, Table S1, read-out: IC50 (concentration resulting in half of the maximal cytotoxic effect)
[9] = MCF7, MTT, Table S1, read-out: IC50 (concentration resulting in half of the maximal cytotoxic effect)
[10] = Homo sapiens, VA-13, VA13, 65-h treatment, MTT, Cmax 100 µM, read-out: IC50abs
[11] = Homo sapiens, HEK-293T, 65-h treatment, Cmax 100 µM, read-out: IC50abs
[12] = Homo sapiens, A549, 65-h treatment, MTT, Cmax 100 µM, read-out: IC50abs
[13] = Homo sapiens, MCF7, 65-h treatment, MTT, Cmax 100 µM, read-out: IC50abs

| Compound | IC50 (VA13 cell line; [1]) | IC50 (HEK293T cell line; [3]) | IC50 (A549 cell line; [4]) | IC50 (MCF7 cell line; [5]) | IC50 (VA13 cell line; [10]) | IC50 (HEK293T cell line; [11]) | IC50 (A549 cell line; [12]) | also measured |
| --- | --- | --- | --- | --- | --- | --- | --- | --- |
| COc1ccc(N2C(=O)C3(CCC(C)=C(C)C3)NC2=S)cc1 (racemic) [Compound 60] | 75.3 ± 17 µM | 10.2 ± 1.3 µM | 52.2 ± 5.7 µM | 98.3 ± 19.8 µM |  |  |  | MIC (E. coli BW25113 DTC; [2]): >1000 µM; MIC (E. coli K-12 (WT)): >1000 µM |
| CC1=C(C)CC2(CC1)NC(=S)N(c1ccc(F)cc1)C2=O (racemic) [Compound 58] | 45 ± 7.5 µM | 13.7 ± 2.3 µM | 23.2 ± 3.5 µM | 59 ± 13.3 µM |  |  |  |  |
| COc1cccc(N2C(=O)NC3(CCC(C)=C(C)C3)C2=O)c1 (stereo not drawn) [Compound 77] |  |  |  |  |  |  |  | MIC (E. coli BW25113 DTC; Escherichia coli, BW25113): 125 µM (≈ 37.5 µg/mL) |
| O=C1NC2(CC3C=CC2C3)C(=O)N1c1ccccc1 (stereo not drawn) [Compound 28b] | > 100 µM | > 100 µM | > 100 µM | > 100 µM |  |  |  | MIC (E. coli BW25113 DTC; [2]): >1000 µM; MIC (E. coli K-12 (WT)): >1000 µM |
| Cc1cccc(N2C(=O)C3(CC4C=CC3C4)NC2=S)c1 (stereo not drawn) [Compound 37a] | > 100 µM | > 100 µM | > 100 µM | > 100 µM |  |  |  |  |
| O=C1NC2(C(=O)N1c1ccccc1)C1C=CC(C1)C2I (stereo not drawn) [Compound 41a] | > 100 µM | 69.1 ± 4.8 µM | > 100 µM | > 100 µM |  |  |  | MIC (E. coli BW25113 DTC; [2]): 1000 µM (≈ 380 µg/mL); MIC (E. coli K-12 (WT)): >1000 µM |
| CC1=C(C)CC2(CC1)NC(=S)N(c1ccc(Cl)cc1)C2=O (stereo not drawn) [Compound 59] | 52.6 ± 7.8 µM | 4.4 ± 0.6 µM | 26.2 ± 3.9 µM | 76.6 ± 16 µM |  |  |  |  |
| O=C1NC2(C(=O)N1c1ccccc1)C1C=CC(C1)C2Br (stereo not drawn) [Compound 40a] | > 100 µM | 56.4 ± 2.5 µM | > 100 µM | > 100 µM |  |  |  | MIC (E. coli BW25113 DTC; [2]): 1000 µM (≈ 333 µg/mL); MIC (E. coli K-12 (WT)): >1000 µM |
| CC1=C(C)CC2(CC1)NC(=S)N(c1cccc(C)c1)C2=O (racemic) [Compound 56] | 98.7 ± 17.6 µM | 22 ± 8 µM | > 100 µM |  |  |  |  |  |
| CC1=C(C)CC2(CC1)NC(=S)N(c1c(C)cccc1C)C2=O (racemic) [Compound 61] |  | ~4 µM | ~10 µM | ~100 µM |  |  |  | IC50 (VA13 cell line; [6]): 0.4 µM; IC50 (HEK293T cell line; [7]): 1.4 µM; IC50 (A549 cell line; [8]): 4.2 µM; IC50 (MCF7 cell line; [9]): 0.9 µM |
| O=C1N(c2ccccc2)C(=S)NC12CC1C=CC2C1 (stereo not drawn) [Compound 34a] |  |  |  |  | > 100 µM | 83 ± 3.7 µM | > 100 µM | IC50 (MCF7 cell line; [13]): > 100 µM |
| Cc1cccc(C)c1N1C(=O)C2(CC3C=CC2CC3)NC1=S (stereo not drawn) [Compound 51a] |  |  |  |  | > 100 µM | > 100 µM | > 100 µM | MIC (E. coli BW25113 DTC; Escherichia coli, BW25113): > 1000 µM; MIC (E. coli K-12 (WT); Escherichia coli): > 1000 µM; IC50 (MCF7 cell line; [13]): > 100 µM |
| O=C1N(c2ccccc2F)C(=S)NC12CC1C=CC2C1 (stereo not drawn) [Compound 35b] | > 100 µM | 87.4 ± 9.9 µM | > 100 µM | > 100 µM |  |  |  | MIC (E. coli BW25113 DTC; [2]): 1000 µM (≈ 288 µg/mL); MIC (E. coli K-12 (WT)): >1000 µM |
| O=C1N[C@@]2(C[C@@H]3C=C[C@H]2C3)C(=O)N1c1ccccc1 [Compound 28a] |  |  |  |  | > 100 µM | > 100 µM | > 100 µM | MIC (E. coli BW25113 DTC; Escherichia coli, BW25113): > 1000 µM; MIC (E. coli K-12 (WT); Escherichia coli): > 1000 µM; IC50 (MCF7 cell line; [13]): > 100 µM |
| O=C1N[C@@]2(C[C@@H]3C=C[C@H]2C3)C(=O)N1c1ccccc1Cl [Compound 75] |  |  |  |  | > 100 µM | 99 ± 11.1 µM | > 100 µM | MIC (E. coli BW25113 DTC; Escherichia coli, BW25113): 500 µM (≈ 144 µg/mL); MIC (E. coli K-12 (WT); Escherichia coli): > 1000 µM; IC50 (MCF7 cell line; [13]): > 100 µM |
| COc1cccc(N2C(=O)C3(CC4C=CC3C4)NC2=S)c1 (stereo not drawn) [Compound 38a] | > 100 µM |  | > 100 µM | > 100 µM |  |  |  |  |
| CC1=C(C)CC2(CC1)NC(=S)N(c1ccc(F)c(Cl)c1)C2=O (stereo not drawn) [Compound 62] |  |  |  |  | 9.8 ± 0.4 µM | 6.8 ± 0.3 µM | 7.9 ± 0.4 µM | MIC (E. coli BW25113 DTC; Escherichia coli, BW25113): 1000 µM (≈ 339 µg/mL); MIC (E. coli K-12 (WT); Escherichia coli): > 1000 µM; IC50 (MCF7 cell line; [13]): 11.1 ± 0.6 µM |
| CC1=C(C)CC2(CC1)NC(=S)N(c1ccccc1Cl)C2=O (racemic) [Compound 55] | > 100 µM | ~5 µM | ~10 µM | ~100 µM |  |  |  | IC50 (VA13 cell line; [6]): 1.9 µM; MIC (E. coli BW25113 DTC; [2]): >1000 µM; IC50 (HEK293T cell line; [7]): 3.1 µM; IC50 (A549 cell line; [8]): 2.1 µM; MIC (E. coli K-12 (WT)): >1000 µM; IC50 (MCF7 cell line; [9]): 1.5 µM |
| COc1ccc(N2C(=O)C3(CC4C=CC3C4)NC2=S)cc1 (stereo not drawn) [Compound 39b] | > 100 µM |  | > 100 µM | > 100 µM |  |  |  |  |
| CC1=C(C)CC2(CC1)NC(=S)N(c1ccccc1F)C2=O (racemic) [Compound 54] | > 100 µM | 29.6 ± 3 µM | 49.5 ± 5 µM |  |  |  |  |  |
| O=C1N(c2ccccc2)C(=S)NC12CC1C=CC2CC1 (stereo not drawn) [Compound 45a] |  |  |  |  | > 100 µM | 21.3 ± 2.3 µM | 85.2 ± 10.1 µM | IC50 (MCF7 cell line; Homo sapiens, MCF7, 65-h treatment, MTT, Cmax 100 µM, marked **, read-out: IC50abs, calculated by data extrapolation, exceeds Cmax): > 100 µM |
| COc1cccc(N2C(=O)C3(CCC(C)=C(C)C3)NC2=S)c1 (stereo not drawn) [Compound 57] |  |  |  |  | 80.8 ± 13.7 µM | 18.3 ± 1.7 µM | 35.4 ± 4.8 µM | IC50 (MCF7 cell line; [13]): 50.6 ± 5.2 µM |
